{
  "source": "patent US20060014940A1",
  "about": "“Cloning and characterization of slc26a6, slc26a1, and slc26a2 anion exchangers” (priority 2002, published 2006)",
  "key": {"human SLC26A3 (DRA)": {"target": "T1, human SLC26A3 (DRA) (Homo sapiens, UniProt P40879)", "T1 construct": "expressed in transfected cells; host or cells: Xenopus laevis oocytes (SLC26A3-injected)", "T1 sequence (P40879 1-764)": "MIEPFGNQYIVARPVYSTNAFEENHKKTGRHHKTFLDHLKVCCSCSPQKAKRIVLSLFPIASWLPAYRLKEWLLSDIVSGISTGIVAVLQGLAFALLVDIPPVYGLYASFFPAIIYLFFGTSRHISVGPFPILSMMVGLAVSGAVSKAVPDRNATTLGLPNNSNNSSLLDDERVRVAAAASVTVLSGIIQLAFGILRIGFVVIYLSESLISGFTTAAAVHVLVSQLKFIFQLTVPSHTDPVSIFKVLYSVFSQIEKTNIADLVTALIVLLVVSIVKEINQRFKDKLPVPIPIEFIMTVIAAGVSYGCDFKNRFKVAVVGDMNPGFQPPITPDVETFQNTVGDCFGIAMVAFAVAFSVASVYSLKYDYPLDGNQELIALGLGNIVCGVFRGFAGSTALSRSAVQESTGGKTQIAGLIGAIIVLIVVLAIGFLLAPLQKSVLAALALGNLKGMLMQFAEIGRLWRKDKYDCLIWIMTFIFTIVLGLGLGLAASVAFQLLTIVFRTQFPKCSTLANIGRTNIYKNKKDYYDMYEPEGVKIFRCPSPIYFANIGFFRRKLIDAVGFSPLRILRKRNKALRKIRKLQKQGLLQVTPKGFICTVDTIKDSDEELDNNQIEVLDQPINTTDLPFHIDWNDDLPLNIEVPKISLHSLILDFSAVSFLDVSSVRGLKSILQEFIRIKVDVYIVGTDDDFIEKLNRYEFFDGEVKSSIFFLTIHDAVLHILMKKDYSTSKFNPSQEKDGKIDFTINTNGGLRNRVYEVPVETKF", "assay": "Cis-inhibition of 36Cl uptake in oocytes expressing human SLC26A3 (DRA)", "format": "cell-based", "details": "10 mM anion (FIG. 19)", "excerpt": "FIG. 19 depicts cis-inhibition of ^36Cl^− uptake by various anions in oocytes expressing human SLC26A3 (DRA).\nThe SLC26A6 exchanger is a likely mediator of intestinal oxalate absorption and thus a potential therapeutic target in calcium-oxalate stone disease. Intestinal expression of the SLC26A3 or DRA protein is also robust, in keeping with the genetic role of SLC26A3 in congenital chloride-losing diarrhea. Hoglund, P. et al., 1996. […] Scott, D. A., et al., 1999; Scott, D.A. & Karniski, L. P., 2000."}, "mouse SLC26A6b": {"target": "T2, mouse SLC26A6b (Mus musculus, UniProt Q8CIW6, R572P)", "T2 construct": "Full-length mouse SLC26A6b and SLC26A 1 cDNAs were cloned into the Xenopus expression vector pGEMHE; expressed in transfected cells; host or cells: Xenopus laevis oocytes injected with in vitro transcribed cRNA (pGEMHE)", "T2 sequence (Q8CIW6 24-758 R572P limits assumed)": "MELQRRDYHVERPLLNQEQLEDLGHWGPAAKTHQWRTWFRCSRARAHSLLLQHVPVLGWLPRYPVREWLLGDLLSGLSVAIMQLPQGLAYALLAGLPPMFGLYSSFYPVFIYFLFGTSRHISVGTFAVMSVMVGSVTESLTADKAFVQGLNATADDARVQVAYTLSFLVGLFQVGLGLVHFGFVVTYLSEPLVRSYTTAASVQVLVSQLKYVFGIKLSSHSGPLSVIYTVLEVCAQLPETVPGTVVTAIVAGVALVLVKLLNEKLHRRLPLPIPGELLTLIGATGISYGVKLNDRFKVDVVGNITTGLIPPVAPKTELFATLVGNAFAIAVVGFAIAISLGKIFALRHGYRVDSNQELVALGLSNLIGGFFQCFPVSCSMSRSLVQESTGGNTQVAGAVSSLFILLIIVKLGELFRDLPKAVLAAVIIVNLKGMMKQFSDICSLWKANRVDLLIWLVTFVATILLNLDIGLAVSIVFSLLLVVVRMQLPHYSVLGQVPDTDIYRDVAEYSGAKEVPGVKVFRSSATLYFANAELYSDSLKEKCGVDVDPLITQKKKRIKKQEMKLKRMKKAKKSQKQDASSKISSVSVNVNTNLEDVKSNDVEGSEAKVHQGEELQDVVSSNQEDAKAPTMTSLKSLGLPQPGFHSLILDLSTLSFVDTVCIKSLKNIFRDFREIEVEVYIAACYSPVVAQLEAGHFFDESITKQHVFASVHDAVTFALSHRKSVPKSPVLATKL", "assay": "Radiolabelled anion uptake/exchange in Xenopus oocytes expressing mouse SLC26A6b", "format": "cell-based", "method": "Full-length mouse SLC26A6b and SLC26A 1 cDNAs were cloned into the Xenopus expression vector pGEMHE (Liman et al., 1992). The SLC26A6 and SLC26A1 expression constructs were linearized, and cRNA was transcribed in vitro using T7 RNA polymerase and a […] MMACHINE® transcription kit (Ambion, Inc. of Austin, Tex., United States of America). Defolliculated oocytes were injected with 25 nl to 50 nl of water or with a solution containing cRNA at a concentration of 0.5 μg/μl (12.5 ng to 25 ng per oocyte) using a Nanoliter-2000 injector (WPI Instruments of Sarasota, Fla., United States of America). Oocytes were incubated at 17° C. in 50% Leibovitz's L-15 media supplemented with penicillin/streptomycin (1000 units/ml) and glutamine for 2-3 days for uptake assays.\nFor sulphate uptake assays, oocytes were pre-incubated for 20 minutes in chloride-free uptake medium (100 mM NMDG gluconate, 2 mM potassium gluconate, 1 mM calcium gluconate, 1 mM magnesium gluconate, 10 mM HEPES-Tris, pH 6.0 or pH 7.5 as indicated), followed by a 60-minute period for uptake in the same medium supplemented with 1 mM K2^35SO4 (40 μCi/ml). The cells were then washed three times in uptake buffer with 5 mM cold K2SO4 to remove tracer activity in the extracellular fluid. The oocytes were dissolved individually in 10% SDS, and tracer activity was determined by scintillation counting. Uptake of chloride, formate, and oxalate was assayed using the same chloride-free uptake solutions, substituting 8.3 mM ^36Cl, 500 μM [^14C]oxalate, or 50 μM [^14C]formate for labeled sulphate.\nFor sulphate exchange and cis-inhibition experiments, the concentration of NMDG-gluconate in the uptake solution was adjusted to maintain isotonic osmolality, which was confirmed experimentally using a FISKE® osmometer (Fiske Associates, Inc. of Bethel, Conn., United States of America)."}},
  "data": [
    {"smiles": "O=C(O)C(=O)O", "note": "[oxalate]", "values": [
      {"measurement": "oxalate transport inferred from cis-inhibition of Cl transport", "setting": "human SLC26A3 (DRA)", "result": "minimal if any"},
      {"measurement": "oxalate uptake", "setting": "mouse SLC26A6b; 500 μM [14C]oxalate (FIG. 8A)", "result": "487±50", "unit": "pmol/oocyte/hour"},
      {"measurement": "exchange of SO4 2− with extracellular anion (trans-stimulation of 35SO4 efflux)", "setting": "mouse SLC26A6b; 10 mM of the anion, 30 minutes (FIG. 7C)", "result": "clearly mediated exchange"}
    ]}
  ]
}
